Data taken from US20120040950A1, “ISOINDOLINONE INHIBITORS OF PHOSPHATIDYLINOSITOL 3-KINASE” (VERTEX PHARMACEUTICALS INCORPORATED, priority 2009, published 2012).
pKi: −log10 of the molar value.

Key:
PI3K-gamma = PI3K-gamma (Homo sapiens, UniProt P48736); assay: PI3K Inhibition Assay; format: biochemical
Procedure: Using a Biomek FX from Beckman Coulter, 1.5 μL of each of ten 2.5-fold serial dilutions of a compound of the invention in 100% DMSO was added to an individual well (hereafter, “test well”) in a 96 well polystyrene plate [Corning, Costar Item No. 3697]. One test well also contained 1.5 μL of DMSO with no compound. […] Using a Titertek Multidrop, 50 μL of Reaction Mix [100 mM HEPES pH 7.5, 50 mM NaCl, 10 mM DTT, 0.2 mg/mL BSA, 60 μM phosphatidylinositol(4,5)bisphosphate diC16 (PI(4,5)P2; Avanti Polar Lipids, Cat. No. 840046P) and PI3K isoform of interest (see Table 3 for isoform concentrations)] was added to each well. To initiate the reaction, 50 μL of ATP Mix [20 mM MgCl2, 6 μM ATP (100 μCi/μmole ^33P-ATP)] was added each well, followed by incubating the wells for 30 min. at 25° C. Final concentrations in each well were 50 mM HEPES 7.5, 10 mM MgCl2, 25 mM NaCl, 5 mM DTT, 0.1 mg/mL BSA, 30 μM PI(4,5)P2, 3 μM ATP, and the PI3K isoform of interest (see Table 2). Final compound concentrations in each well ranged from 10 μM to 1 nM.
After incubation, the reactions in each well were quenched by addition of 50 μL of stop solution [30% TCA/Water, 10 mM ATP]. […] 50 μL of scintillation fluid was added to each well and the plate read on a Perkin-Elmer TopCount™ NXT liquid scintillation counter to obtain ^33P-counts representing inhibition values. […]

activated microglia = assay: Microglia Activation Assay (LPS-injected mice, Iba1 IHC of brain); format: in vivo, Female C57B1/6J mice; conditions: 10 mg/kg b.i.d. orally by gavage, 4 doses, LPS 0.5 mg/kg i.p. for three days
Procedure: Female C57B1/6J mice (7 weeks old) were purchased from Jackson Laboratory (Maine, US). Animals were acclimated for a week at standard laboratory conditions (12 hrs light cycles) with free access to rodent chow and water. All procedures were in accordance with the National Institute of Health Guidelines for the care and Use of Laboratory Animals and were approved by IACUCC. The endotoxin Lipopolysaccharide (LPS) (E. coli 011:B4, cat#437627) was purchased from Calbiochem. LPS was dissolved in PBS buffer at a concentration of 0.05 mg/ml and stored in frozen aliquots. At the start of the study, mice received an intraperitoneal (i.p.) injection of LPS (0.5 mg/kg) for three consecutive days. Therapeutic treatment with VRT compounds was started together with the 2nd LPS administration and maintained throughout the study. Compound was dosed twice a day orally by gavage for a total of 4 doses. 24 h following the last LPS injection, and 2 hrs following the last VRT dose, animals were sacrificed by CO2 asphyxiation. […]
Digital images were captured using the Aperio ScanScope Slide Scanner (Aperio Technologies, Vista, Calif.). Images were captured at 20× optical magnification, and analyzed using the software Definiens Developer XD. […] Compound efficacy was calculated as percent decrease in number of activated microglia relative to vehicle control.

Chain of PI3K-gamma (P48736 whole entry, species assumed, canonical isoform): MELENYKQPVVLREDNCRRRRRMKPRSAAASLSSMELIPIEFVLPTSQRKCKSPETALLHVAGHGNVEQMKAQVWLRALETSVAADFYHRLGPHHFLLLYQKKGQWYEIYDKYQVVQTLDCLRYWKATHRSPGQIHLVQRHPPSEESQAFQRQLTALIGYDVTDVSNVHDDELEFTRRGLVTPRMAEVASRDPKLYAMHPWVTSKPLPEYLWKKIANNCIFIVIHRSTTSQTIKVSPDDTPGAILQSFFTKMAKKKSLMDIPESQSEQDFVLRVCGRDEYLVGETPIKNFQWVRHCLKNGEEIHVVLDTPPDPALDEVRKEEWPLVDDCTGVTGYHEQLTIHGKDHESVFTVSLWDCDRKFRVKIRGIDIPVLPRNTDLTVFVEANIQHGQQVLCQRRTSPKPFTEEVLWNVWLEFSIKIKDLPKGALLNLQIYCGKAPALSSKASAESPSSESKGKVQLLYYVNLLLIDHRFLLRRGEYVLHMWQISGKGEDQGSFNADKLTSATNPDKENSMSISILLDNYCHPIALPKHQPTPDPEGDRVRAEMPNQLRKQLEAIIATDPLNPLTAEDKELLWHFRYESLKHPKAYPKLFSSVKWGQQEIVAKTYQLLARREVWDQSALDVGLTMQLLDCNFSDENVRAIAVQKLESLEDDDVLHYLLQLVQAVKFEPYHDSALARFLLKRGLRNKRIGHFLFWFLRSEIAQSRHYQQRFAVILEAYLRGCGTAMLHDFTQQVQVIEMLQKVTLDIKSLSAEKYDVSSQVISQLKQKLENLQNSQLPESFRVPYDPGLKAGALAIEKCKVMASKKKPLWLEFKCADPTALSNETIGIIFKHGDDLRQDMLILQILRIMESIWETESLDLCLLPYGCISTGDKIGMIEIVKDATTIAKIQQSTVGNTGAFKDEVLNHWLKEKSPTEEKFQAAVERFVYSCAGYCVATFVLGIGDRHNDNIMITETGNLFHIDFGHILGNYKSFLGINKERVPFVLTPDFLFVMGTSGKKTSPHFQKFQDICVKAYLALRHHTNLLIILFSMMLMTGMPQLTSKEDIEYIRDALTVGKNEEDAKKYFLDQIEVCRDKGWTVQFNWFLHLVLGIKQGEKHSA

Row | Structure (SMILES) | pKi (PI3K-gamma) | percent decrease in number of activated microglia relative to vehicle control (activated microglia)
1 | COc1cc(-c2nc3c(cc2C)C(=O)N(c2cn[nH]c2)C3)cnc1OC [Compound 238, 2-(5,6-dimethoxypyridin-3-yl)-3-methyl-6-(1H-pyrazol-4-yl)-6,7-dihydro-5H-pyrrolo[3,4-b]pyridin-5-one] | 5.60 to 6.30 | 
2 | Cc1cc(-c2cncc(OC(F)F)c2)nc2c1C(=O)N(c1cnn(CC(F)(F)F)c1)C2 [Compound 271] |  | 39%
